Results on one compound are retold here after PMC10296061, “Inhibition of the Mitochondrial Carnitine/Acylcarnitine Carrier by Itaconate through Irreversible Binding to Cysteine 136: Possible Pathophysiological Implications” (Biomolecules, 2023).

Structures are written as SMILES.

Experiment [1] concerns the target T1, native mitochondrial carnitine/acylcarnitine carrier (CAC) (Rattus norvegicus, UniProt P97521).
T1 construct: from tissue; host or cells: rat liver mitochondria
T1 sequence (P97521 1-301): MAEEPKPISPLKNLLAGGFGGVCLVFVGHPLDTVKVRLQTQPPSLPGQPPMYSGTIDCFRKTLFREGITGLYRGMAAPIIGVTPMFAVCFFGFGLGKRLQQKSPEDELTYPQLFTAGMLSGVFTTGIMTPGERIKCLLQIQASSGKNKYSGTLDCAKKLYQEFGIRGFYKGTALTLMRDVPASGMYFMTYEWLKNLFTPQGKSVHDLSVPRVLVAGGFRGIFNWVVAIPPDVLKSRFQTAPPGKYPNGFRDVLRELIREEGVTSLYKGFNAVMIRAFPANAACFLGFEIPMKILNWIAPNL
Briefly: [3H]carnitine/carnitine antiport in proteoliposomes reconstituted with native CAC from rat liver mitochondria. To be noted: 10 min incubation, 0.1 mM [3H]carnitine, pH 7.0, read-out: IC50 for itaconate inhibition of [3H]carnitine/carnitine antiport. It counts as biochemical. The text has this:
(§1) As previously described, recombinant CAC (WT and mutants) and ORC1 proteins were used for proteoliposome formation. For experiments with native CAC, ORC1, or ANT proteins, rat liver mitochondria, or HeLa cell mitochondria, the latter for the CAC alone, were first purified using the standard procedure of cell disruption and differential centrifugation. Then proteins were extracted using 3% Triton X-100 and reconstituted as described for the recombinant proteins. The concentration of intraliposomal carnitine and ornithine was 15 mM and 30 mM, respectively, in all samples.
To test the transport activity of the CAC, 550 μL of proteoliposomes was passed through a Sephadex G-75 column to remove the external substrate. Six hundred μL of the turbid eluate was collected, divided into samples of 100 μL each, and used for transport measurement by the inhibitor-stop method. Transport was started by adding 0.1 mM [^3H]carnitine ([^3H]ornitine or [^3H]ATP) to proteoliposome samples and stopped with 1.5 mM NEM (N-ethylmaleimide) at the indicated time interval. […] Transport rates were measured in 10 min, i.e., within the initial linear range of the time course, at 25 °C. After terminating the transport reaction, the external substrate was removed by chromatography on the Sephadex G-75 column, and the intraliposomal radioactivity was measured. […]

Experiment [2] addresses T2, native ornithine/citrulline carrier (ORC, SLC25A15) (Rattus norvegicus, UniProt A0A0G2K309).
T2 construct: from tissue; host or cells: rat liver mitochondria
T2 sequence (A0A0G2K309 1-301): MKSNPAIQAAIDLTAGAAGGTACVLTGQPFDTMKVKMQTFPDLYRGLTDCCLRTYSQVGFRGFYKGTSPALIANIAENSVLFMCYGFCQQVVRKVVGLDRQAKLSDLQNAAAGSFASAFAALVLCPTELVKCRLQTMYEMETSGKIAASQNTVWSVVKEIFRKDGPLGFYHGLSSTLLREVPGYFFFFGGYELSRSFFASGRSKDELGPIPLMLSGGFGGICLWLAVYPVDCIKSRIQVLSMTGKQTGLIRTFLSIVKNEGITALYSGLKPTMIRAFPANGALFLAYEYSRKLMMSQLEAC
Briefly: [3H]ornithine transport in proteoliposomes reconstituted with native ORC. To be noted: read-out: IC50 for itaconate inhibition. It counts as biochemical.
From the text: as §1
To test the transport activity of the CAC, 550 μL of proteoliposomes was passed through a Sephadex G-75 column to remove the external substrate. […] Transport rates were measured in 10 min, i.e., within the initial linear range of the time course, at 25 °C. After terminating the transport reaction, the external substrate was removed by chromatography on the Sephadex G-75 column, and the intraliposomal radioactivity was measured. […]
Figure 3 Identification of residue responsible for itaconate inhibition. […] Transport activity of the WT (○), C136A (●), C155A (Δ), C23V/C58V/C89S/C155V/C283S (▲), and C23V/C58V/C89S/C136V/C155V/C283S (□) was measured by adding 0.1 mM [^3H]carnitine after treatment by itaconate at the indicated concentrations. […]

As to `C=C(CC(=O)O)C(=O)O` [itaconate], the IC50 is 11 ± 4.6 mM in experiment [1] and 52 ± 5.5 mM in experiment [2].
